Data on eight molecules can be found in patent publication US8039430B2 (University of Wollongong, priority 2005, dated 2011).

Structures are written as SMILES. Like-named read-outs stand apart in the source and are kept apart here.

Test [1] concerns Staphylococcus aureus strain ATCC 6538P. The test can be described thus: Antibacterial screening (MIC) of compounds of Example 2, S. aureus, Mueller-Hinton broth. The class given is cell-based. The note with it: for MIC: Staphylococcus aureus, ATCC6538P, read-out: Antibacterial activity μg/mL, S.a. The procedure:
Antibacterial Screening Methodology for Compounds of Example 2
(§1) • All assays used the Staphylococcus aureus strain ATCC 6538P. • Assays described in Chapter 5 additionally used the vancomycin-resistant enterococci and vancomycin-sensitive enterococci strains Ef243, Ef449, Ef820 and Ef487. Culture Media • Mueller-Hinton Broth Medium (MHB): MHB (Oxoid CM405) was prepared with final concentrations of […] MgCl2 and 2 μg/mL CaCl2. Culture medium was pre-warmed for approximately 2-3 h at 37° C. before use. • Mueller-Hinton Agar Medium (MHA): MMB containing 1.5% Agar (Merck Agar 1.01614). Maintenance of Bacteria • From a thawed cryovial, the bacteria was streaked onto MHA and the plate incubated overnight at 37° C. • From this plate, 10 cryovials were prepared by looping several colonies into 0.5 mL of 20% glycerol solution. The cryovials were immediately stored at −140° C. Preparation of Seed Cultures • A cryovial was removed from −140° C. storage and thawed at room temperature. • An MHA plate was streaked with a loopful of bacterial suspension and incubated overnight at 37° C. to create a parent plate (P1). • A daughter plate (D1) was streaked from the parent plate and incubated overnight at 37° C. […] The second parent plate (P2) was used to generate two additional daughter plates using the procedure outlined above before being discarded. • Cryovials were used twice to prepare parent plates (P1 and P2) before being discarded. […] A vancomycin control set (triplicate) and a compound negative control set (triplicate) were also included on each plate (FIG. 1). • The inoculated culture medium was incubated at 37° C. for 30 min, with shaking at 130 rpm. • Using a multichannel pipette, the contents of the first row were mixed before 50 μL was transferred to the second row. The pipette tips were changed and the process repeated by 50 μL of the mixed broth solutions in the second row being transferred to the third row. This process was repeated until the last row contained either the diluted test compound or a control (vancomycin or compound-negative). […] Antibacterial Testing of Compounds of Example 2 Introduction
(§2) The specific testing procedures and protocols are outlined in the section “Antibacterial Screening Methodology for the Compounds of Example 2”.
The antibacterial activity results are measured by minimum inhibitory concentration (MIC), which is the lowest concentration of compound necessary to prevent bacterial growth.

The next test concerns E.f243. The test can be described thus: Antibacterial screening (MIC) of compounds of Example 2, E.f243. It counts as cell-based, Enterococcus faecium. The following applies: for MIC: Enterococcus faecium, read-out: Antibacterial activity μg/mL, E.f243. The procedure:
as §1, §2
(§3) Vancomycin was used as the standard/control.

Another test has as its system E.f449. The test can be described thus: Antibacterial screening (MIC) of compounds of Example 2, E.f449. It counts as cell-based, Enterococcus faecium. The note with it: for MIC: Enterococcus faecium, read-out: Antibacterial activity μg/mL, E.f449. The procedure: as §1, §2, §3
The test system of another test is E.f820. Briefly: Antibacterial screening (MIC) of compounds of Example 2, E.f820. It counts as cell-based, Enterrococci faecium. The following applies: for MIC: read-out: Antibacterial activity μg/mL, E.f820. The procedure: as §1, §2, §3
The subject of a further test is E.f987. The test can be described thus: Antibacterial screening (MIC) of compounds of Example 2, E.f987. The class given is cell-based, Enterococcus faecium. The following applies: for MIC: Enterococcus faecium, read-out: Antibacterial activity μg/mL, E.f987.
[2] abbreviates: Example 2 compounds (linear cationic peptides), S. aureus, vancomycin-susceptible strain.
Setting [3] is: Example 2 compounds, enterococci strain E.f243.
Where [4] appears, read: Example 2 compounds, enterococci strain E.f449.
[5] abbreviates: Example 2 compounds, fully vancomycin-resistant strain E.f820.
The mark [6] stands for this setting: Example 2 compounds, enterococci strain E.f987.

In the case of `C=CC[C@H](NC(=O)[C@H](CCCCN)NC(=O)[C@H](Cc1ccc(-c2c3ccccc3cc3ccccc23)cc1)NC(C)=O)C(=O)OC.Cl` [Compound 118, Methyl(2S,5S,8S)-2-allyl-5-(4-aminobutyl)-8-(4-[9-anthrecenyl]benzyl)-3,6,9-triaza-5-butylamino-4,7,10-trioxoundecanoate hydrochloride], the MIC was 31.3 µg/mL in test [1] (setting [2]); over 125 µg/mL in the test with E.f243 (setting [3]); over 125 µg/mL in the test on E.f449 (setting [4]); over 125 µg/mL in the test on E.f820 (setting [5]); over 125 µg/mL in the test with E.f987 (setting [6]).
For the molecule `C=CC[C@H](NC(=O)[C@H](CCCCN)NC(=O)[C@H](Cc1ccc(-c2cc3ccccc3c3ccccc23)cc1)NC(C)=O)C(=O)OC.Cl` [Compound 119], the MIC in test [1] (setting [2]) is 15.6 µg/mL; in the test with E.f243 (setting [3]), over 125 µg/mL; in the test with E.f449 (setting [4]), over 125 µg/mL; in the test on E.f820 (setting [5]), over 125 µg/mL; in the test with E.f987 (setting [6]), over 125 µg/mL.
Take `C=CC[C@H](NC(=O)[C@@H](CCCNC(=N)N)NC(=O)[C@H](NCCCC)NC(=O)COc1ccc2ccccc2c1-c1c(OCc2ccccc2)ccc2ccccc12)C(=O)OCc1ccccc1.Cl.Cl` [Compound 134, Benzyl(2S,5R,8R)-2-allyl-3,6,9-triaza-11-(2-[2′-benzyloxy-{1,1′}-(S)-binaphthalen-2-yloxy])-8-(butylamino)-5-(3-guanidinopropyl)-4,7,10-trioxoundecanoate dihydrochloride]: the “Antibacterial activity μg/mL, S.a” value in test [1] (setting [2]) is 3.9 µg/mL. Moreover, in the test on E.f243 (setting [3]), the “Antibacterial activity μg/mL, E.f243” value came out at 62.5 µg/mL. The “Antibacterial activity μg/mL, E.f449” value with E.f449 (setting [4]) turned out to be 62.5 µg/mL. The “Antibacterial activity μg/mL, E.f820” value in the test on E.f820 (setting [5]) was determined as 62.5 µg/mL. The “Antibacterial activity μg/mL, E.f987” value in the test on E.f987 (setting [6]) turned out to be 125 µg/mL.
Regarding `C=CC[C@H](NC(=O)[C@@H](CCCNC(=N)N)NC(=O)[C@@H](CCCCN)NC(=O)[C@H](Cc1ccc(-c2c3ccccc3cc3ccccc23)cc1)NC(C)=O)C(=O)OCc1ccccc1.Cl.Cl` [Compound 139, Benzyl(2S,5R,8R,11S)-2-allyl-8-(4-aminobutyl)-11-(4-[9-anthracenyl]benzyl)-3,6,9,12-tetraaza-5-(3-guanidinopropyl)-4,7,10,13-tetraoxotetradecanoate], the MIC was 15.6 µg/mL in test [1] (setting [2]); over 125 µg/mL in the test on E.f243 (setting [3]); over 125 µg/mL in the test on E.f449 (setting [4]); over 125 µg/mL in the test with E.f820 (setting [5]); over 125 µg/mL in the test on E.f987 (setting [6]).
Turning to `C=CC[C@H](NC(=O)[C@@H](CCCNC(=N)N)NC(=O)[C@@H](CCCCN)NC(=O)[C@H](Cc1ccc(-c2cc3ccccc3c3ccccc23)cc1)NC(C)=O)C(=O)OCc1ccccc1.Cl.Cl` [Compound 140, Benzyl(2S,5R,8R,11S)-2-allyl-8-(4-aminobutyl)-3,6,9,12-tetraaza-5-(3-guanidinopropyl)-4,7,10,13-tetraoxo-11-(4-[9-phenanthrenyl]benzyl)tetradecanoate], the MIC was 7.8 µg/mL in test [1]; over 125 µg/mL in the test with E.f243; over 125 µg/mL with E.f449; over 125 µg/mL with E.f820; over 125 µg/mL in the test on E.f987.
As to `C=CCOc1ccc2ccccc2c1-c1c(OCC(=O)N[C@H](CCCN)C(=O)Nc2cccc(C(=O)OC)c2)ccc2ccccc12.Cl` [Compound 155, Methyl(3R)-3-(6-(2-[2′-allyloxy-{1,1′}-(S)-binaphthalen-2-yloxy])-3-(3-aminopropyl)-1,4-diaza-2,5-dioxohexyl)benzoate hydrochloride], in test [1] (setting [2]), the “Antibacterial activity μg/mL, S.a” value is 7.8 µg/mL. Also, the “Antibacterial activity μg/mL, E.f243” value in the test on E.f243 (setting [3]) was over 125 µg/mL. In addition, the “Antibacterial activity μg/mL, E.f449” value in the test with E.f449 (setting [4]) stood at 125 µg/mL. The “Antibacterial activity μg/mL, E.f820” value with E.f820 (setting [5]) stood at 125 µg/mL. Also, the “Antibacterial activity μg/mL, E.f987” value in the test with E.f987 (setting [6]) was over 125 µg/mL.
Take `C=CCOc1ccc2ccccc2c1-c1c(OCC(=O)N[C@H](CCCN)C(=O)Nc2cccc(C(=O)OCc3ccccc3)c2)ccc2ccccc12.Cl` [Compound 157, Benzyl(3R)-3-(6-(2-[2′-allyloxy-{1,1′}-(S)-binaphthalen-2-yloxy])-3-(3-aminopropyl)-1,4-diaza-2,5-dioxohexyl)benzoate hydrochloride]: the “Antibacterial activity μg/mL, S.a” value in test [1] (setting [2]) was 15.6 µg/mL. The “Antibacterial activity μg/mL, E.f243” value in the test on E.f243 (setting [3]) is over 125 µg/mL. The “Antibacterial activity μg/mL, E.f449” value with E.f449 (setting [4]) was 125 µg/mL. The “Antibacterial activity μg/mL, E.f820” value in the test on E.f820 (setting [5]) is 125 µg/mL. For the same molecule, in the test on E.f987 (setting [6]), the “Antibacterial activity μg/mL, E.f987” value was over 125 µg/mL.
For the molecule `C=CCOC(=O)c1cccc(NC(=O)[C@@H](CCCN)NC(=O)COc2ccc3ccccc3c2-c2c(OCC=C)ccc3ccccc23)c1.Cl` [Compound 159, Allyl(3R)-3-(6-(2-[2′-allyloxy-{1,1′}-(S)-binaphthalen-2-yloxy])-3-(3-aminopropyl)-1,4-diaza-2,5-dioxohexyl)benzoate hydrochloride], the “Antibacterial activity μg/mL, S.a” value in test [1] (setting [2]) worked out at 62.5 µg/mL. Moreover, the “Antibacterial activity μg/mL, E.f243” value with E.f243 (setting [3]) was 125 µg/mL. Moreover, the “Antibacterial activity μg/mL, E.f449” value in the test with E.f449 (setting [4]) came to 125 µg/mL. The “Antibacterial activity μg/mL, E.f820” value in the test with E.f820 (setting [5]) worked out at 62.5 µg/mL. The “Antibacterial activity μg/mL, E.f987” value in the test on E.f987 (setting [6]) was over 125 µg/mL.
